The source of these data is ChEMBL document CHEMBL5705903, “A DNA Hypomethylation Signature Predicts Antitumor Activity of LSD1 Inhibitors in SCLC” (Cancer Cell, 2015).

One may read the IC50 as the point on the concentration scale where inhibition reaches its midpoint. What is called AUC(0-inf) is total exposure, with the tail of the curve extrapolated. Lower therefore signals less exposure. For orientation: half-life means the time in which the quantity being followed falls by half. Low values mean fast loss, high ones slow loss.

The nature of series [1]: Effect on cleaved PARP level in human NCI-H1417 cells assessed as relative expression at 10 nM measured after 7 days by Western blot analysis (reference value: 0.10). The following applies: time 7 day. It is filed as functional. (Immunoblotting shows a protein as a band on a membrane.)
Series [2] has as its system NCI-H69. Description: Antitumor activity against human NCI-H69 cells xenografted in nude mouse assessed as tumor growth inhibition at 1.5 mg/kg, po administered daily measured twice weekly relative to control. It is filed as functional. The following applies: read-out: TGI. For orientation: Xenograft models place foreign cells or tissue in a host animal.
Series [3] is described as follows: Toxicity in rat assessed as multifocal hemorrhage in organs measured for 28 days. The following applies: in vivo, 672 h, time 28 day.
The nature of series [4]: Effect on cleaved PARP level in human COLO-668 cells assessed as relative expression at 10 nM measured after 14 days by Western blot analysis (reference value: 3.50). The class given is functional. The following applies: time 14 day.
Series [5] in a line: Toxicity in dog assessed as suppression of neutrophil in bone marrow measured for 28 days. Conditions: 672 h, time 28 day. It is filed as cell-based, Canis lupus familiaris.
In series [6] the test system is NCI-H1417. Description: Cell growth inhibition of human NCI-H1417 cells measured upto 10 days. It is filed as functional, cell-based. The following applies: time <= 10.0 day.
A short description of series [7]: Effect on cleaved PARP level in human NCI-H1694 cells assessed as fold change at 1000 nM measured after 14 days by Western blot analysis (reference value: 1.00). The class given is functional. The following applies: time 14 day.
Series [8] deals with NCI-H526. Description: In vivo inhibition of LSD1 in human NCI-H526 cells xenografted in nude mouse assessed as change in ZEB1 gene expression administrated daily for 5 days by qRT-PCR analysis. The following applies: dose 0.02-135 mg/kg, time 5.0 day. It is filed as functional, organism-based.
A short description of series [9]: Toxicity in rat assessed as effect on hemodynamics measured for 28 days. The following applies: in vivo, 672 h, time 28 day.
Series [10] is described as follows: Effect on cleaved PARP level in human NCI-H146 cells assessed as relative expression at 100 nM measured after 10 days by Western blot analysis (reference value: 0.27). It is filed as functional. Conditions: time 10 day.
Series [11] concerns NCI-H526. Put plainly: In vivo inhibition of LSD1 in human NCI-H526 cells xenografted in nude mouse assessed as change in IGFBP2 gene expression administrated daily for 5 days by qRT-PCR analysis. The class given is functional, organism-based. The following applies: dose 0.02-135 mg/kg, time 5.0 day.
Series [12] can be described thus: Effect on cleaved PARP level in human NCI-H69 cells assessed as relative expression at 10 nM measured after 14 days by Western blot analysis (reference value: 0.03). The class given is functional. The following applies: time 14 day.
Series [13] concerns NCI-H526. Put plainly: In vivo inhibition of LSD1 in human NCI-H526 cells xenografted in nude mouse assessed as change in ZEB1 gene expression measured after 24 hrs post single administration by qRT-PCR analysis. It is filed as functional, organism-based. Conditions: dose 0.06-135 mg/kg.
Series [14] in a line: Effect on cleaved PARP level in human NCI-H146 cells assessed as fold change at 1000 nM measured after 14 days by Western blot analysis (reference value: 1.00). The following applies: time 14 day. The class given is functional.
Series [15] in a line: Effect on cleaved PARP level in human NCI-H526 cells assessed as relative expression at 1000 nM measured after 7 days by Western blot analysis (reference value: 0.57). It is filed as functional. Conditions: time 7 day.
The nature of series [16]: Effect on cleaved PARP level in human NCI-H2171 cells assessed as fold change at 100 nM measured after 10 days by Western blot analysis (reference value: 1.00). The class given is functional. Conditions: time 10 day.
Series [17] deals with NCI-H1417. Put plainly: Antitumor activity against human NCI-H1417 cells xenografted in nude mouse assessed as decrease in GRP expression at 1.5 mg/kg administrated daily by qRT-PCR analysis. The class given is functional, organism-based. Conditions: time 1-14 day, TDE = time-dependent effect.
Series [18] relates to NCI-H526. Description: Antitumor activity against human NCI-H526 cells xenografted in nude mouse assessed as tumor growth inhibition at 1.5 mg/kg, po administered daily measured twice weekly relative to control. It is filed as functional. Conditions: read-out: TGI.
Series [19] in a line: Effect on cleaved PARP level in human NCI-H510 cells assessed as fold change at 100 nM measured after 7 days by Western blot analysis (reference value: 1.00). It is filed as functional, NCI-H510A. The following applies: time 7 day.
A short description of series [20]: Effect on cleaved PARP level in human NCI-H1694 cells assessed as relative expression at 10 nM measured after 7 days by Western blot analysis (reference value: 0.25). It is filed as functional. Conditions: time 7 day.
Series [21] in a line: Effect on cleaved PARP level in human NCI-H889 cells assessed as fold change at 1000 nM measured after 14 days by Western blot analysis (reference value: 1.00). Conditions: time 14 day. The class given is functional.
Series [22] can be described thus: Effect on cleaved PARP level in human NCI-H146 cells assessed as fold change at 100 nM measured after 10 days by Western blot analysis (reference value: 1.00). The following applies: time 10 day. The class given is functional.
The nature of series [23]: Effect on cleaved PARP level in human NCI-H526 cells assessed as relative expression at 100 nM measured after 7 days by Western blot analysis (reference value: 0.57). The following applies: time 7 day. It is filed as functional.
The nature of series [24]: Effect on cleaved PARP level in human NCI-H510 cells assessed as relative expression at 100 nM measured after 14 days by Western blot analysis (reference value: 0.01). Conditions: time 14 day. The class given is functional, NCI-H510A.
The nature of series [25]: Effect on cleaved PARP level in human NCI-H146 cells assessed as fold change at 10 nM measured after 7 days by Western blot analysis (reference value: 1.00). Conditions: time 7 day. It is filed as functional.
Series [26] is described as follows: Effect on cleaved PARP level in human COLO-668 cells assessed as relative expression at 10 nM measured after 10 days by Western blot analysis (reference value: 1.07). It is filed as functional. Conditions: time 10 day.
A short description of series [27]: Dose normalized AUC (0 to last) in mouse tumor at 5 mg/kg, po by HPLC/MS/MS analysis. It is filed as ADME, organism-based, Neoplasm. The following applies: in vivo.
Series [28] is described as follows: Effect on cleaved PARP level in human NCI-H510 cells assessed as relative expression at 10 nM measured after 7 days by Western blot analysis (reference value: 0.24). The class given is functional, NCI-H510A. Conditions: time 7 day.
Series [29] deals with SHP77. Put plainly: Antitumor activity against human SHP77 cells xenografted in nude mouse assessed as mean tumor volume at […] mg/kg, po administered daily measured twice weekly (reference value: 2193 +/- 293 mm3). It is filed as functional. The following applies: 1.25 mg/kg.
Series [30] in a line: Effect on cleaved PARP level in human NCI-H69 cells assessed as relative expression at 100 nM measured after 7 days by Western blot analysis (reference value: 0.02). The class given is functional. The following applies: time 7 day.
Series [31] can be described thus: Effect on cleaved PARP level in human NCI-H524 cells assessed as fold change at 100 nM measured after 14 days by Western blot analysis (reference value: 1.00). It is filed as functional. Conditions: time 14 day.
Series [32] in a line: Effect on cleaved PARP level in human NCI-H510 cells assessed as relative expression at 10 nM measured after 14 days by Western blot analysis (reference value: 0.01). The following applies: time 14 day. The class given is functional, NCI-H510A.
A short description of series [33]: Effect on cleaved PARP level in human NCI-H1417 cells assessed as relative expression at 1000 nM measured after 7 days by Western blot analysis (reference value: 0.10). The class given is functional. Conditions: time 7 day.
Series [34] can be described thus: Effect on cleaved PARP level in human COLO-668 cells assessed as fold change at 1000 nM measured after 10 days by Western blot analysis (reference value: 1.00). The class given is functional. Conditions: time 10 day.
A short description of series [35]: Inhibition of GABA-A receptor (unknown origin). More on the design: species or system Homo sapiens.
A short description of series [36]: AUC (0 to infinity) in mouse at 5.5 mg/kg, ip by HPLC/MS/MS analysis. Conditions: in vivo. It is filed as ADME, organism-based.
Series [37] can be described thus: Half life in mouse at 5.5 mg/kg, ip by HPLC/MS/MS analysis. It is filed as ADME, organism-based. The following applies: in vivo.

Structures are written as SMILES.

As for `O=C(O)c1ccc(CN2CCC(CN[C@@H]3C[C@H]3c3ccccc3)CC2)cc1` [GSK2879552], the Activity in series [1] is on record as 0.16; in series [3] it was “Toxic”; in series [4], 1.45; in series [5], “Toxic”; in [9] it was “Toxic”; in series [10], 0.25. Besides, the Activity in series [12] is 0.05; in series [15] it was 0.74; in series [17], “Tde”; in series [20], 0.3; in series [23], 0.68; in series [24] it was 0.52. The Activity is on record as 0.81 in series [26]; 0.3 in series [28]; 1845 mm3 in [29]; 0.03 in series [30]; 0.32 in series [32]; 0.36 in [33]. In addition, the inhibition in vivo at 1.5 mg/kg in series [2] was 49%; in [18], 57%. Further, the “growth inhibition (GI)” value in [6] was “Dose-Dependent Effect”. Besides, the “fold change (FC)” value came to 0.84 in [7]; 0.6 in series [14]; 1.2 in [16]; 1.84 in series [19]; 2.82 in series [21]; 0.94 in series [22]. In addition, the “fold change (FC)” value amounted to 1.09 in [25], 0.74 in series [31] and 0.59 in [34]. Moreover, the inhibition result in series [8], in series [11] and in [13] was “Dose-Dependent Effect” in each case. This compound also displayed an AUClast/dose in series [27] of 464 ng·h/mL/mg/kg.
Take `c1ccc([C@@H]2C[C@H]2NC2CCNCC2)cc1`: the IC50 in [35] was > 100 µM. Further, in series [36], the AUC(0-inf) stood at 938 ng·h/mL. Besides, the half-life in series [37] was 3.6 h.
